According to patent publication EP2980218A1, “Aptamer thrombin complex for use as an antidote to direct acting thrombin inhibitors” (Rheinische Friedrich-Wilhelms-Universität Bonn, priority 2014, dated 2016):

Tests used:
[1] = anticoagulation monitoring (anti-FIIa activity) after oral dabigatran in mice; assay type: in vivo; details: oral administration of 1 mg/g body weight dabigatran
Experimental: The in-vivo antidote properties of aptathrombin were studied in a mouse model after oral administration of 1 mg/g body weight dabigatran.

[2] = humans, after dabigatran administration; cited from earlier work

time to peak level of anti-FIIa activities [1]: 3 to 4 h
Substance: N-[2-(4-Aminoiminomethylphenylamino)-1-methyl-1H-benzimidazol-5-ylcarbonyl]-N-(2-pyridyl)-beta-alanine [dabigatran]
plasma concentration, upper limit of the peak level [2]: 280 ng/mL
time at which peak level is reached [2]: 2 to 4 h
